From patent US9931327B2, “Derivatives of 1-phenyl-2-pyridinyl alkyl alcohols as phosphodiesterase inhibitors” (Chiesi Farmaceutici S.p.A., priority 2011, dated 2018) come the findings set out here.

Structures can show the parent of a compound that is named as a salt.

In one test the test system is LPS-induced TNF-α release in peripheral blood mononuclear cells (PBMCs). Nature of the test: In vitro determination of PDE4 inhibitory activity in the PBMCs assay (LPS-induced TNF-α release). It counts as cell-based, human. As to conditions: PBMC; human PBMCs, LPS 3 ng/ml, 18 hours, TNF-α by ELISA; read-out: PDE4 inhibition (IC50, 50% inhibition of LPS-induced TNF-α release). Put shortly: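 Cryopreserved human PBMCs (10^5 cells/well) pre-incubated 30 min with compound (10^−12 to 10^−6 M or 10^−3 to 10^−7 M), then stimulated with LPS 3 ng/ml for 18 h at 37 °C. TNF-α in medium by ELISA; IC50 as mean ± 95% confidence limits.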
On the technique in general: In an ELISA, binding on a coated surface is turned into a signal by an enzyme label.
On to `O=C(O[C@@H](Cc1c(Cl)c[n+]([O-])cc1Cl)c1ccc(OC(F)F)c(OCC2CC2)c1)[C@@H]1CCCCN1S(=O)(=O)c1ccc(N2CCOCC2)nc1` [Compound 111, 3,5-dichloro-4-((S)-2-(3-(cyclopropylmethoxy)-4-(difluoromethoxy)phenyl)-2-((S)-1-(6-morpholinopyridin-3-ylsulfonyl)piperidine-2-carbonyloxy)ethyl)pyridine 1-oxide], for which the IC50 – broadly, the concentration that inhibits the measured activity by half – fell in the range of 0.1 to 1 nM.
Regarding `O=C(O[C@@H](Cc1c(Cl)c[n+]([O-])cc1Cl)c1ccc(OC(F)F)c(OCC2CC2)c1)C1SCCN1C(=O)c1cncs1` (stereo partly drawn) [Compound 38, 3,5-dichloro-4-((2S)-2-(3-(cyclopropylmethoxy)-4-(difluoromethoxy)phenyl)-2-(3-(thiazole-5-carbonyl)thiazolidine-2-carbonyloxy)ethyl)pyridine 1-oxide], the IC50 is under 0.1 nM.
On the same count and under the same terms, in the case of `Nc1ccc(S(=O)(=O)N2CSC[C@H]2C(=O)O[C@@H](Cc2c(Cl)c[n+]([O-])cc2Cl)c2ccc(OC(F)F)c(OCC3CC3)c2)cc1` [Compound 138, 4-((S)-2-((R)-3-(4-aminophenylsulfonyl)thiazolidine-4-carbonyloxy)-2-(3-(cyclopropylmethoxy)-4-(difluoromethoxy)phenyl)ethyl)-3,5-dichloropyridine 1-oxide] it was 0.1 to 1 nM; in that of `Cn1cnc(S(=O)(=O)N2CCS[C@H]2C(=O)O[C@@H](Cc2c(Cl)c[n+]([O-])cc2Cl)c2ccc(OC(F)F)c(OCC3CC3)c2)c1` [Compound 119, 3,5-dichloro-4-((S)-2-(3-(cyclopropylmethoxy)-4-(difluoromethoxy)phenyl)-2-((S)-3-(1-methyl-1H-imidazol-4-ylsulfonyl)thiazolidine-2-carbonyloxy)ethyl)pyridine 1-oxide], under 0.1 nM.
The same measure, in the same setting: then `CN(C)C(=O)c1cccc(C(=O)N2CCS[C@H]2C(=O)O[C@@H](Cc2c(Cl)c[n+]([O-])cc2Cl)c2ccc(OC(F)F)c(OCC3CC3)c2)c1` [Compound 187, 3,5-dichloro-4-((S)-2-(3-(cyclopropylmethoxy)-4-(difluoromethoxy)phenyl)-2-((S)-3-(3-(dimethylcarbamoyl)benzoyl)thiazolidine-2-carbonyloxy)ethyl)pyridine 1-oxide], with 0.1 to 1 nM; and `O=C(O[C@@H](Cc1c(Cl)c[n+]([O-])cc1Cl)c1ccc(OC(F)F)c(OCC2CC2)c1)C1SCCN1S(=O)(=O)c1cccnc1` (stereo partly drawn) [Compound 66, 3,5-dichloro-4-((2S)-2-(3-(cyclopropylmethoxy)-4-(difluoromethoxy)phenyl)-2-(3-(pyridin-3-ylsulfonyl)thiazolidine-2-carbonyloxy)ethyl)pyridine 1-oxide], with under 0.1 nM.
Same read-out and setting: in the case of `Nc1ccc(C(=O)N2CCSC2C(=O)O[C@@H](Cc2c(Cl)c[n+]([O-])cc2Cl)c2ccc(OC(F)F)c(OCC3CC3)c2)cc1` (stereo partly drawn) [Compound 26, 4-((2S)-2-(3-(4-aminobenzoyl)thiazolidine-2-carbonyloxy)-2-(3-(cyclopropylmethoxy)-4-(difluoromethoxy)phenyl)ethyl)-3,5-dichloropyridine 1-oxide] it was 0.1 to 1 nM.
In the case of `O=C(O[C@@H](Cc1c(Cl)c[n+]([O-])cc1Cl)c1ccc(OC(F)F)c(OCC2CC2)c1)[C@@H]1SCCN1C(=O)c1cccc(-c2cnco2)c1` [Compound 41, 3,5-dichloro-4-((S)-2-(3-(cyclopropylmethoxy)-4-(difluoromethoxy)phenyl)-2-((S)-3-(3-(oxazol-5-yl)benzoyl)thiazolidine-2-carbonyloxy)ethyl)pyridine 1-oxide], the IC50 is 0.1 to 1 nM.
With `O=C(O[C@@H](Cc1c(Cl)c[n+]([O-])cc1Cl)c1ccc(OC(F)F)c(OCC2CC2)c1)C1SCCN1S(=O)(=O)c1ccccc1` (stereo partly drawn) [Compound 57, 3,5-dichloro-4-((2S)-2-(3-(cyclopropylmethoxy)-4-(difluoromethoxy)phenyl)-2-(3-(phenylsulfonyl)thiazolidine-2-carbonyloxy)ethyl)pyridine 1-oxide], the IC50 lay within 0.1 to 1 nM.
For `COC(=O)c1cc(CN2CCCC2C(=O)O[C@@H](Cc2c(Cl)c[n+]([O-])cc2Cl)c2ccc(OC(F)F)c(OCC3CC3)c2)oc1C` (stereo partly drawn) [Compound 15, 3,5-dichloro-4-((2S)-2-(3-(cyclopropylmethoxy)-4-(difluoromethoxy)phenyl)-2-(1-((4-(methoxycarbonyl)-5-methylfuran-2-yl)methyl)pyrrolidine-2-carbonyloxy)ethyl)pyridine 1-oxide], the IC50 was 1 to 10 nM.
As to `CNC(=O)c1cc(S(=O)(=O)N2CCS[C@H]2C(=O)O[C@@H](Cc2c(Cl)c[n+]([O-])cc2Cl)c2ccc(OC(F)F)c(OCC3CC3)c2)cn1C` [Compound 241, 3,5-dichloro-4-((S)-2-(3-(cyclopropylmethoxy)-4-(difluoromethoxy)phenyl)-2-((S)-3-(1-methyl-5-(methylcarbamoyl)-1H-pyrrol-3-ylsulfonyl)thiazolidine-2-carbonyloxy)ethyl)pyridine 1-oxide], the IC50 is under 0.1 nM.
Consider `Cc1ccc(S(=O)(=O)N2CCSC2C(=O)O[C@@H](Cc2c(Cl)c[n+]([O-])cc2Cl)c2ccc(OC(F)F)c(OCC3CC3)c2)c(C)c1` (stereo partly drawn) [Compound 61, 3,5-dichloro-4-((2S)-2-(3-(cyclopropylmethoxy)-4-(difluoromethoxy)phenyl)-2-(3-(2,4-dimethylphenylsulfonyl)thiazolidine-2-carbonyloxy)ethyl)pyridine 1-oxide], for which the IC50 lay in the range of 0.1 to 1 nM.
Take `CN(C)C(=O)c1ccc(S(=O)(=O)N2CCSC2C(=O)O[C@@H](Cc2c(Cl)c[n+]([O-])cc2Cl)c2ccc(OC(F)F)c(OCC3CC3)c2)cc1` (stereo partly drawn) [Compound 125, 3,5-dichloro-4-((2S)-2-(3-(cyclopropylmethoxy)-4-(difluoromethoxy)phenyl)-2-(3-(4-(dimethylcarbamoyl)phenylsulfonyl)thiazolidine-2-carbonyloxy)ethyl)pyridine 1-oxide]: the IC50 was 0.1 to 1 nM.
As to `CN1CCN(C(=O)c2cccc(S(=O)(=O)N3CCS[C@H]3C(=O)O[C@@H](Cc3c(Cl)c[n+]([O-])cc3Cl)c3ccc(OC(F)F)c(OCC4CC4)c3)c2)CC1` [Compound 132, 3,5-dichloro-4-((S)-2-(3-(cyclopropylmethoxy)-4-(difluoromethoxy)phenyl)-2-((S)-3-(3-(4-methylpiperazine-1-carbonyl)phenylsulfonyl)thiazolidine-2-carbonyloxy)ethyl)pyridine 1-oxide], the IC50 is under 0.1 nM.
The same measure, in the same setting: then `Cc1nn(C)c2ncc(S(=O)(=O)N3CCSC3C(=O)O[C@@H](Cc3c(Cl)c[n+]([O-])cc3Cl)c3ccc(OC(F)F)c(OCC4CC4)c3)cc12` (stereo in doubt) [Compound 240, 3,5-dichloro-4-((S)-2-(3-(cyclopropylmethoxy)-4-(difluoromethoxy)phenyl)-2-((S)-3-(1,3-dimethyl-1H-pyrazolo[3,4-b]pyridin-5-ylsulfonyl)thiazolidine-2-carbonyloxy)ethyl)pyridine 1-oxide], with under 0.1 nM.

Staying with this test, now noted: PBMC; human PBMCs, LPS 3 ng/ml, 18 hours; compounds of formula (II); read-out: PDE4 inhibition (IC50, 50% inhibition of LPS-induced TNF-α release).
For the molecule `O=C(O[C@@H](Cc1c(Cl)c[n+]([O-])cc1Cl)c1ccc(OC(F)F)c(OCC2CC2)c1)[C@H]1NCCS1` [Compound 6, 3,5-dichloro-4-((S)-2-(3-(cyclopropylmethoxy)-4-(difluoromethoxy)phenyl)-2-((S)-thiazolidine-2-carbonyloxy)ethyl)pyridine 1-oxide hydrochloride], the IC50 fell in the range of 0.1 to 1 nM.
Still for that read-out and setting: in the case of `O=C(OC(Cc1c(Cl)c[n+]([O-])cc1Cl)c1ccc(OC(F)F)c(OCC2CC2)c1)C1CNCCO1` (centres unmarked) [Compound 8] it was 1 to 10 nM.
